From patent US20140128385A1 (NOVARTIS AG, priority 2011, published 2014)
Where a name gives a salt, the structure may show the parent alone.

Each compound was assayed against T1, BACE-2 (Homo sapiens, UniProt Q9Y5Z0) (assay: assay for inhibition of BACE-2).
T1 construct: Recombinant BACE-2 (extracellular domain, expressed in baculovirus and purified using standard methods); made in house
T1 sequence (Q9Y5Z0 63-473 limits assumed): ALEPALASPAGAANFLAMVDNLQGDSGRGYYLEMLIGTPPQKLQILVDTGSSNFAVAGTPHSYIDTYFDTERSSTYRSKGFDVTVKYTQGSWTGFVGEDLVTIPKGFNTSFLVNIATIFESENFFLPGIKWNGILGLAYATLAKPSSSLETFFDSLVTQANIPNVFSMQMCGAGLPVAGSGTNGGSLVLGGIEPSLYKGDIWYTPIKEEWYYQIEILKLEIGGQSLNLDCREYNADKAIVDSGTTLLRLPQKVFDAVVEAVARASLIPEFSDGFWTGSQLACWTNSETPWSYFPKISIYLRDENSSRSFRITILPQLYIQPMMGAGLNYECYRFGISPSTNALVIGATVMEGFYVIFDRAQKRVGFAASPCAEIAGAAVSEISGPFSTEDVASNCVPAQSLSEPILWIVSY
Format: biochemical

| SMILES | IC50 |
| --- | --- |
| N#Cc1cnc(C(=O)Nc2ccc(F)c([C@]3(C(F)F)COCC(N)=N3)c2)c(N)c1 [Example 225] | 27 nM |
| [2H]C([2H])([2H])OC([2H])([2H])c1cc2c(Cl)c[nH]c2nc1C(=O)Nc1ccc(F)c([C@]2(C)CO[C@@](C)(C(F)(F)F)C(N)=N2)c1 [Example 247, 3-Chloro-5-trideuteromethoxy-dideuteromethyl-1H-pyrrolo[2,3-b]pyridine-6-carboxylic acid [3-((3R,6R)-5-amino-3,6-dimethyl-6-trifluoromethyl-3,6-dihydro-2H-[1,4]oxazin-3-yl)-4-fluoro-phenyl]-amide] | 44 nM |
| N#Cc1ccc(C(=O)Nc2ccc(F)c(C3(C(F)F)CNC(=O)C(N)=N3)c2)nc1 (stereo not drawn) [Example 203, 5-Cyano-pyridine-2-carboxylic acid [3-(6-amino-2-difluoromethyl-5-oxo-2,3,4,5-tetrahydro-pyrazin-2-yl)-4-fluoro-phenyl]-amide] | 7 nM |
| CN1CC(C)(c2cc(NC(=O)c3ccc(Br)cn3)ccc2F)N=C(N)C1=O (stereo not drawn) [Example 189, 5-Bromo-pyridine-2-carboxylic acid [3-(6-amino-2,4-dimethyl-5-oxo-2,3,4,5-tetrahydro-pyrazin-2-yl)-4-fluoro-phenyl]-amide hydrochloride] | 49 nM |
| CC(C)Oc1cnc(C(=O)Nc2ccc(F)c([C@]3(C(F)F)COCC(N)=N3)c2)cn1 [Example 170, 5-Isopropoxy-pyrazine-2-carboxylic acid [3-((R)-5-amino-3-difluoromethyl-3,6-dihydro-2H-[1,4]oxazin-3-yl)-4-fluoro-phenyl]-amide] | 2710 nM |
| COc1cnc(C(=O)Nc2ccc(F)c([C@]3(C(F)F)COCC(N)=N3)c2)c(N)n1 [Example 175, 3-Amino-5-methoxy-pyrazine-2-carboxylic acid [3-((R)-5-amino-3-difluoromethyl-3,6-dihydro-2H-[1,4]oxazin-3-yl)-4-fluoro-phenyl]-amide hydrochloride] | 111 nM |
| Cc1cnc(C(=O)Nc2cccc(C3(C(F)F)COCC(N)=N3)c2)cn1 (stereo not drawn) [Example 38] | 9010 nM |
| CCc1ccc(C(=O)Nc2ccc(F)c([C@]3(C(F)F)COCC(N)=N3)c2)nc1 [Example 159, hydrochloride] | 119 nM |
| CC1(c2cccc(NC(=O)c3ccc(C(F)(F)F)cn3)c2)COCC(N)=N1 (stereo not drawn) [Example 22, 5-Trifluoromethyl-pyridine-2-carboxylic acid [3-(5-amino-3-methyl-3,6-dihydro-2H-[1,4]oxazin-3-yl)-phenyl]-amide hydrochloride] | 1500 nM |
| NC1=N[C@@](c2cc(NC(=O)c3ccc(Br)cn3)ccc2F)(C(F)F)COC1 [Example 118] | 11 nM |
| NC1=N[C@@](c2cc(NC(=O)c3ccc(OCF)cn3)ccc2F)(C(F)F)COC1 [Example 139] | 106 nM |
| NC1=N[C@@](c2cc(NC(=O)c3cnc(OCC(F)F)cn3)ccc2F)(C(F)F)COC1 [Example 123] | 1830 nM |
| COc1cc(C(F)F)c(C(=O)Nc2ccc(F)c([C@]3(C)CO[C@@](C)(C(F)(F)F)C(N)=N3)c2)nn1 [Example 244, 4-Difluoromethyl-6-methoxy-pyridazine-3-carboxylic acid [3-((3R,6R)-5-amino-3,6-dimethyl-6-trifluoromethyl-3,6-dihydro-2H-[1,4]oxazin-3-yl)-4-fluoro-phenyl]-amide hydrochloride] | 9 nM |
| Cl.[2H]c1nc(C(=O)Nc2ccc(F)c([C@]3(C(F)F)COCC(N)=N3)c2)c(C([2H])([2H])[2H])c([2H])c1C#N [Example 147] | 165 nM |
| CCn1ccnc1C(=O)Nc1ccc(F)c([C@]2(C(F)F)COCC(N)=N2)c1 [Example 166, 1-Ethyl-1H-imidazole-2-carboxylic acid [3-((R)-5-amino-3-difluoromethyl-3,6-dihydro-2H-[1,4]oxazin-3-yl)-4-fluoro-phenyl]-amide hydrochloride] | 378 nM |
| Cc1cc(OC(F)F)cnc1C(=O)Nc1ccc(F)c([C@]2(C)CO[C@@](C)(C(F)(F)F)C(N)=N2)c1 [Example 238] | 12 nM |
| NC1=N[C@@](c2cc(NC(=O)c3cc4cncnc4[nH]3)ccc2F)(C(F)F)COC1 [Example 157, 7H-Pyrrolo[2,3-d]pyrimidine-6-carboxylic acid [3-((R)-5-amino-3-difluoromethyl-3,6-dihydro-2H-[1,4]oxazin-3-yl)-4-fluoro-phenyl]-amide hydrochloride] | > 10000 nM |
| COc1cc(Br)cnc1C(=O)Nc1cccc(C2(C(F)F)COCC(N)=N2)c1 (stereo not drawn) [Example 107] | 133 nM |
| Cc1cc(C#N)cnc1C(=O)Nc1cccc(C2(CF)COCC(N)=N2)n1 (stereo not drawn) [Example 261, 5-{6-[(5-Cyano-3-methyl-pyridine-2-carbonyl)-amino]-pyridin-2-yl}-5-fluoromethyl-5,6-dihydro-2H-[1,4]oxazin-3-yl-ammonium trifluoro acetate] | 1020 nM |
| C[C@H]1OC[C@](c2cc(NC(=O)c3ccc(C#N)cn3)ccc2F)(C(F)F)N=C1N (relative stereo) [Example 75, 5-Cyano-pyridine-2-carboxylic acid [3-((3R*,6R*)-5-amino-3-difluoromethyl-6-methyl-3,6-dihydro-2H-[1,4]oxazin-3-yl)-4-fluoro-phenyl]-amide hydrochloride] | 355 nM |
| COc1cc(Br)cnc1C(=O)Nc1ccc(F)c([C@]2(CF)COCC(N)=N2)c1 [Example 95] | 53 nM |

| SMILES | IC50 |
| --- | --- |
| COCCOc1ccc(C(=O)Nc2ccc(F)c([C@]3(C(F)F)COCC(N)=N3)c2)nc1 [Example 180, 5-(2-Methoxy-ethoxy)-pyridine-2-carboxylic acid [3-((R)-5-amino-3-difluoromethyl-3,6-dihydro-2H-[1,4]oxazin-3-yl)-4-fluoro-phenyl]-amide hydrochloride] | 1650 nM |
| CCc1nc(C(=O)Nc2cccc(C3(C(F)F)COCC(N)=N3)c2)co1 (stereo not drawn) [Example 105] | 1020 nM |
| NC1=NC(c2cccc(NC(=O)c3ncc(C(F)(F)F)cc3Cl)c2)(C(F)F)COC1 (stereo not drawn) [Example 40] | 2450 nM |
| NC1=N[C@@](c2cc(NC(=O)c3ncc(Br)cc3Cl)ccc2F)(C(F)F)COC1 [Example 117] | 13 nM |
| NC1=N[C@@](c2cc(NC(=O)c3cnc(O)cn3)ccc2F)(C(F)F)COC1 [Example 145] | 697 nM |
| C[C@@H]1OC[C@](c2cc(NC(=O)c3ccc(Br)cn3)ccc2F)(C(F)F)N=C1N (relative stereo) [Example 78, 5-Bromo-pyridine-2-carboxylic acid [3-((3R*,6S*)-5-amino-3-difluoromethyl-6-methyl-3,6-dihydro-2H-[1,4]oxazin-3-yl)-4-fluoro-phenyl]-amide hydrochloride] | 22 nM |
| NC1=N[C@@](c2cc(NC(=O)c3cc(Br)co3)ccc2F)(C(F)F)COC1 [Example 125] | 102 nM |
| CC#CCOc1cnc(C(=O)Nc2ccc(F)c([C@]3(C(F)F)COCC(N)=N3)c2)cn1 [Example 164, 5-But-2-ynyloxy-pyrazine-2-carboxylic acid [3-((R)-5-amino-3-difluoromethyl-3,6-dihydro-2H-[1,4]oxazin-3-yl)-4-fluoro-phenyl]-amide hydrochloride] | 76 nM |
| Cc1cc(C(F)F)cnc1C(=O)Nc1ccc(F)c([C@]2(C(F)F)COCC(N)=N2)c1 [Example 222] | 52 nM |
| CC1(c2cc(NC(=O)c3ccc(C#N)cn3)ccc2F)N=C(N)COCC1(F)F (stereo not drawn) [Example 156, 5-Cyano-pyridine-2-carboxylic acid [3-(3-amino-6,6-difluoro-5 methyl-2,5,6,7-tetrahydro[1,4]oxazepin-5-yl)-4 fluoro-phenyl]-amide] | 90 nM |
| Cc1cnc(C(=O)Nc2ccc(F)c([C@]3(C(F)F)COCC(N)=N3)c2)s1 [Example 149] | 476 nM |
| NC1=N[C@@](c2cc(NC(=O)c3cnc(Cl)cn3)ccc2F)(C(F)F)COC1 [Example 141] | 43 nM |
| NC1=N[C@@](c2cc(NC(=O)c3cnc(OCC(F)(F)F)cn3)ccc2F)(C(F)F)COC1 [Example 124] | 1630 nM |
| CCc1nc(C(=O)Nc2ccc(F)c([C@]3(C(F)F)COCC(N)=N3)c2)co1 [Example 131] | 67 nM |
| NC1=N[C@@](c2cc(NC(=O)c3ccc4c(Cl)c[nH]c4n3)ccc2F)(C(F)F)COC1 [Example 219] | 117 nM |
| NC1=N[C@@](c2cc(NC(=O)c3ccc(OC(F)F)cn3)ccc2F)(C(F)F)COC1 [Example 138] | 458 nM |
| Cc1cc(C#N)cnc1C(=O)Nc1ccc(F)c([C@]2(C)COC(CF)(CF)C(N)=N2)c1 (single isomer, unassigned) [Example 252] | 33 nM |
| NC1=NC(c2cccc(NC(=O)c3ccc(C(F)(F)F)cn3)c2)(C(F)F)COC1 (stereo not drawn) [Example 39] | 2970 nM |
| NC1=N[C@@](c2cc(NC(=O)c3ncc(=O)[nH]c3N)ccc2F)(C(F)F)CNC1 [Example 214, 3-Amino-5-oxo-4,5-dihydro-pyrazine-2-carboxylic acid [3-((R)-6-amino-2-difluoromethyl-2,3,4,5-tetrahydro-pyrazin-2-yl)-4-fluoro-phenyl]-amide] | 757 nM |
| CC1(c2cccc(NC(=O)c3ncc(Br)cn3)c2)COCC(N)=N1 (stereo not drawn) [Example 7, 5-Bromo-pyrimidine-2-carboxylic acid [3-(5-amino-3-methyl-3,6-dihydro-2H-[1,4]oxazin-3-yl)-phenyl]-amide hydrochloride] | 309 nM |
| CC1(C)OCC(c2cc(NC(=O)c3ccc(C#N)cn3)ccc2F)(C(F)F)N=C1N (stereo not drawn) [Example 79, 5-Cyano-pyridine-2-carboxylic acid[3-(5-amino-3-difluoromethyl-6,6-dimethyl-3,6-dihydro-2H-[1,4]oxazin-3-yl)-4-fluoro-phenyl]-amide] | 316 nM |
